In ChEMBL document CHEMBL5209580, “Flow cytometry transport assay for SLC2A3 using HEK293 JumpIN TRex SLC2A3 WT-OE cells” (2022):
pIC50: −log10 of the molar value.

Target: T1, Solute carrier family 2, facilitated glucose transporter member 3 (Homo sapiens, UniProt P11169)
T1 sequence (P11169 whole entry): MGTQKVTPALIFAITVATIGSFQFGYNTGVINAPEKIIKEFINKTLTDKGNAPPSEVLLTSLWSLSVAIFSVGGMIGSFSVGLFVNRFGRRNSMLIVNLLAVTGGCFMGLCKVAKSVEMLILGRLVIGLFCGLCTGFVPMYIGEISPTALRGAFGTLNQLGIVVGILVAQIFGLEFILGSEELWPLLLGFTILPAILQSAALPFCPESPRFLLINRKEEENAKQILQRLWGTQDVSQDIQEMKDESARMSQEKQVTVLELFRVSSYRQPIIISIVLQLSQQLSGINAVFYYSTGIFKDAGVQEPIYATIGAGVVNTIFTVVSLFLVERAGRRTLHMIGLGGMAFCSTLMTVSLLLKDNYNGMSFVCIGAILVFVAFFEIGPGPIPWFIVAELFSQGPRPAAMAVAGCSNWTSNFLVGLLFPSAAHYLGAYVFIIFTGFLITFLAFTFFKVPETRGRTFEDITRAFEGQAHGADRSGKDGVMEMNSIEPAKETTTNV
Test: Inhibition of the Glucose Transporter (GLUT3, SLC2A3) as assessed by a FRET based flow cytometry assay using a genetically-encoded biosensor for measuring free glucose (FLII12Pglu-700uDelta6) in HEK293 JumpIN TRex SLC2A3 WT-OE cells (PubChem AID: 1794827)
Type: functional, cell-based

pIC50: < 5.00
Compound: O=C(Oc1cccc(F)c1OC(=O)c1cccc(O)c1)c1cccc(O)c1
